In PubChem BioAssay (NCI):
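Where inhibition never reached the appropriate level, the endpoint shown equals the highest concentration tested. Otherwise, values were interpolated linearly from a five-concentration, 48-hour dose response in 96-well plates. Abbreviation: GI50, concentration required for 50% inhibition of growth. TGI denotes the concentration required for complete inhibition of growth.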

Key:
Assay in all cases: NCI tumour cell line growth inhibition, 48 h
NCI-H226 lung = system: NCI-H226 lung
NCI-H522 lung = system: NCI-H522 lung
OVCAR-8 ovarian = system: OVCAR-8 ovarian
HCC-2998 colon = system: HCC-2998 colon
SW-620 colon = system: SW-620 colon
HCT-15 colon = system: HCT-15 colon
MALME-3M melanoma = system: MALME-3M melanoma
NCI-H460 lung = system: NCI-H460 lung
MCF7 breast = system: MCF7 breast
OVCAR-4 ovarian = system: OVCAR-4 ovarian
SK-MEL-2 melanoma = system: SK-MEL-2 melanoma
HL-60(TB) leukemia = system: HL-60(TB) leukemia
HCT-116 colon = system: HCT-116 colon
MDA-MB-231 breast = system: MDA-MB-231 breast
A498 renal = system: A498 renal
SF-295 CNS = system: SF-295 CNS
RXF 393 renal = system: RXF 393 renal
NCI-H23 lung = system: NCI-H23 lung
SR leukemia = system: SR leukemia
LOX IMVI melanoma = system: LOX IMVI melanoma
UACC-62 melanoma = system: UACC-62 melanoma
PC-3 prostate = system: PC-3 prostate
SF-268 CNS = system: SF-268 CNS
SK-MEL-28 melanoma = system: SK-MEL-28 melanoma
EKVX NSCLC = system: EKVX NSCLC
SK-OV-3 ovarian = system: SK-OV-3 ovarian
COLO 205 colon = system: COLO 205 colon
UACC-257 melanoma = system: UACC-257 melanoma
M14 melanoma = system: M14 melanoma
BT-549 breast = system: BT-549 breast
HS 578T breast = system: HS 578T breast
SF-539 CNS = system: SF-539 CNS
RPMI-8226 leukemia = system: RPMI-8226 leukemia
OVCAR-5 ovarian = system: OVCAR-5 ovarian
SNB-75 CNS = system: SNB-75 CNS
T-47D breast = system: T-47D breast
CAKI-1 renal = system: CAKI-1 renal
MDA-MB-435 = system: MDA-MB-435
CCRF-CEM leukemia = system: CCRF-CEM leukemia
ACHN renal = system: ACHN renal
U251 CNS = system: U251 CNS
A549 NSCLC = system: A549 NSCLC
TK-10 renal = system: TK-10 renal
SK-MEL-5 melanoma = system: SK-MEL-5 melanoma
HT29 colon = system: HT29 colon
HOP-62 NSCLC = system: HOP-62 NSCLC
KM12 colon = system: KM12 colon
NCI/ADR-RES ovarian = system: NCI/ADR-RES ovarian
SNB-19 CNS = system: SNB-19 CNS
DU-145 prostate = system: DU-145 prostate
UO-31 renal = system: UO-31 renal
SN12C renal = system: SN12C renal
786-0 renal = system: 786-0 renal
MOLT-4 leukemia = system: MOLT-4 leukemia
IGROV1 ovarian = system: IGROV1 ovarian
HOP-92 NSCLC = system: HOP-92 NSCLC
K-562 leukemia = system: K-562 leukemia

For CN(C)CCNC(=O)c1ccc(-c2nc3ccc4[nH]ncc4c3c3c2CCC3)cc1, the GI50 (NCI-H226 lung) was 1010 nM, the TGI (NCI-H226 lung) was 6340 nM and the GI50 (NCI-H522 lung) was 387 nM. For the same molecule, the TGI (NCI-H522 lung) was 1320 nM, the GI50 (OVCAR-8 ovarian) was 854 nM and the TGI (OVCAR-8 ovarian) was 5800 nM. The GI50 (HCC-2998 colon) was 1250 nM, the TGI (HCC-2998 colon) was 5680 nM and the GI50 (SW-620 colon) was 611 nM. It also gave a TGI (SW-620 colon) of 3610 nM, a GI50 (HCT-15 colon) of 1610 nM and a TGI (HCT-15 colon) of 7630 nM. The GI50 (MALME-3M melanoma) was 1260 nM, the TGI (MALME-3M melanoma) was 4130 nM and the GI50 (NCI-H460 lung) was 1280 nM. The TGI (NCI-H460 lung) was 5170 nM, the GI50 (MCF7 breast) was 657 nM and the TGI (MCF7 breast) was 5250 nM. For the same molecule, the GI50 (OVCAR-4 ovarian) was 1330 nM, the TGI (OVCAR-4 ovarian) was 5480 nM and the GI50 (SK-MEL-2 melanoma) was 850 nM. For the same molecule, the TGI (SK-MEL-2 melanoma) was 1830 nM, the GI50 (HL-60(TB) leukemia) was 992 nM and the TGI (HL-60(TB) leukemia) was 3340 nM. It also gave a GI50 (HCT-116 colon) of 331 nM, a TGI (HCT-116 colon) of 4340 nM and a GI50 (MDA-MB-231 breast) of 927 nM. It also gave a TGI (MDA-MB-231 breast) of 2840 nM, a GI50 (A498 renal) of 281 nM and a TGI (A498 renal) of 1070 nM. For the same molecule, the GI50 (SF-295 CNS) was 1340 nM, the TGI (SF-295 CNS) was 5380 nM and the GI50 (RXF 393 renal) was 279 nM. For the same molecule, the TGI (RXF 393 renal) was 1100 nM, the GI50 (NCI-H23 lung) was 1190 nM and the TGI (NCI-H23 lung) was 3940 nM. For the same molecule, the GI50 (SR leukemia) was 140 nM, the TGI (SR leukemia) was 2820 nM and the GI50 (LOX IMVI melanoma) was 616 nM. For the same molecule, the TGI (LOX IMVI melanoma) was 1500 nM, the GI50 (UACC-62 melanoma) was 1100 nM and the TGI (UACC-62 melanoma) was 6100 nM. For the same molecule, the GI50 (PC-3 prostate) was 717 nM, the TGI (PC-3 prostate) was 4960 nM and the GI50 (SF-268 CNS) was 634 nM. The TGI (SF-268 CNS) was 2140 nM, the GI50 (SK-MEL-28 melanoma) was 1310 nM and the TGI (SK-MEL-28 melanoma) was 5340 nM. The GI50 (EKVX NSCLC) was 891 nM, the TGI (EKVX NSCLC) was 5010 nM and the GI50 (SK-OV-3 ovarian) was 288 nM. It also gave a TGI (SK-OV-3 ovarian) of 3040 nM, a GI50 (COLO 205 colon) of 507 nM and a TGI (COLO 205 colon) of 2230 nM. For the same molecule, the GI50 (UACC-257 melanoma) was 2310 nM, the TGI (UACC-257 melanoma) was 8360 nM and the GI50 (M14 melanoma) was 961 nM. It also gave a TGI (M14 melanoma) of 6080 nM, a GI50 (BT-549 breast) of 650 nM and a TGI (BT-549 breast) of 1430 nM. It also gave a GI50 (HS 578T breast) of 549 nM, a TGI (HS 578T breast) of 1990 nM and a GI50 (SF-539 CNS) of 606 nM. It also gave a TGI (SF-539 CNS) of 1740 nM, a GI50 (RPMI-8226 leukemia) of 1190 nM and a TGI (RPMI-8226 leukemia) of 4140 nM. It also gave a GI50 (OVCAR-5 ovarian) of 1400 nM, a TGI (OVCAR-5 ovarian) of 7340 nM and a GI50 (SNB-75 CNS) of 543 nM. The TGI (SNB-75 CNS) was 2040 nM, the GI50 (T-47D breast) was 1370 nM and the TGI (T-47D breast) was 9660 nM. For the same molecule, the GI50 (CAKI-1 renal) was 263 nM, the TGI (CAKI-1 renal) was 5540 nM and the GI50 (MDA-MB-435) was 1130 nM. It also gave a TGI (MDA-MB-435) of 6990 nM, a GI50 (CCRF-CEM leukemia) of 857 nM and a TGI (CCRF-CEM leukemia) of 28700 nM. For the same molecule, the GI50 (ACHN renal) was 844 nM, the TGI (ACHN renal) was 6860 nM and the GI50 (U251 CNS) was 1020 nM. For the same molecule, the TGI (U251 CNS) was 6510 nM, the GI50 (A549 NSCLC) was 1260 nM and the TGI (A549 NSCLC) was 6780 nM. It also gave a GI50 (TK-10 renal) of 295 nM, a TGI (TK-10 renal) of 5380 nM and a GI50 (SK-MEL-5 melanoma) of 1600 nM. For the same molecule, the TGI (SK-MEL-5 melanoma) was 5980 nM, the GI50 (HT29 colon) was 1290 nM and the TGI (HT29 colon) was 6130 nM. For the same molecule, the GI50 (HOP-62 NSCLC) was 593 nM, the TGI (HOP-62 NSCLC) was 2670 nM and the GI50 (KM12 colon) was 1080 nM. For the same molecule, the TGI (KM12 colon) was 4620 nM, the GI50 (NCI/ADR-RES ovarian) was 9070 nM and the TGI (NCI/ADR-RES ovarian) was 50000 nM. For the same molecule, the GI50 (SNB-19 CNS) was 1470 nM, the TGI (SNB-19 CNS) was 6210 nM and the GI50 (DU-145 prostate) was 760 nM. It also gave a TGI (DU-145 prostate) of 5010 nM, a GI50 (UO-31 renal) of 1070 nM and a TGI (UO-31 renal) of 4660 nM. It also gave a GI50 (SN12C renal) of 1130 nM, a TGI (SN12C renal) of 4150 nM and a GI50 (786-0 renal) of 882 nM. It also gave a TGI (786-0 renal) of 5610 nM, a GI50 (MOLT-4 leukemia) of 1040 nM and a TGI (MOLT-4 leukemia) of 15300 nM. It also gave a GI50 (IGROV1 ovarian) of 684 nM, a TGI (IGROV1 ovarian) of 5400 nM and a GI50 (HOP-92 NSCLC) of 343 nM. It also gave a TGI (HOP-92 NSCLC) of 1840 nM, a GI50 (K-562 leukemia) of 1110 nM and a TGI (K-562 leukemia) of 20100 nM.
